Test results taken from ChEMBL document CHEMBL4011641, “Prodrugs of Pyrazolo[3,4-d]pyrimidines: From Library Synthesis to Evaluation as Potential Anticancer Agents in an Orthotopic Glioblastoma Model” (J Med Chem, 2017).
pIC50, pKi: −log10 of the molar value. Converted amounts (≈) assume the structure as drawn.

What was measured:
[1] = Antitumor activity against human U87 cells xenografted in nude immunodeficient CD1 mouse assessed as mean survival time at 50 mg/kg, po administered every other day (reference value: 30 day); assay type: functional, U-87MG ATCC
Mus musculus [2] = assay: MRT in BALB/C mouse assessed as N-(3-bromophenyl)-1-(2-chloro-2-phenylethyl)-6-(2-morpholinoethylthio)-1H-pyrazolo[3,4-d]pyrimidin-4-amine level at 50 mg/kg administered through oral gavage as methylcellulose formulation measured at 1 to 24 hrs post dose by UV/LC-MS analysis; assay type: ADME, organism-based; conditions: in vivo
Mus musculus [3] = assay: Tmax in BALB/C mouse assessed as N-(3-bromophenyl)-1-(2-chloro-2-phenylethyl)-6-(2-morpholinoethylthio)-1H-pyrazolo[3,4-d]pyrimidin-4-amine level at 50 mg/kg administered through oral gavage as methylcellulose formulation measured at 1 to 24 hrs post dose by UV/LC-MS analysis; assay type: ADME, organism-based; conditions: in vivo
[4] = Metabolic stability in human liver microsomes assessed as parent compound remaining at 50 uM after 1 hr in presence of NADPH regenerating system by UV/LC-MS analysis; assay type: ADME, microsome; conditions: read-out: Stability
[5] = Metabolic stability in mouse liver microsomes assessed as unmetabolized compound remaining at 50 uM after 1 hr in presence of NADPH regenerating system by UV/LC-MS analysis; assay type: ADME, microsome; conditions: read-out: Stability
[6] = Plasma concentration in BALB/C mouse at 50 mg/kg, ip via bolus administration measured at 24 hrs post dose by UV/LC-MS; assay type: ADME, organism-based
Brain = assay: Drug uptake in BALB/C mouse brain at 50 mg/kg, ip via bolus administration measured at 24 hrs post dose by UV/LC-MS analysis; assay type: ADME, organism-based; conditions: in vivo
[7] = Cmax in BALB/C mouse at 50 mg/kg, ip administered via bolus dose using DMSO formulation measured at 1 to 24 hrs post dose by UV/LC-MS analysis; assay type: ADME, organism-based; set-up: dose 50 mg/kg, route intraperitoneal; conditions: in vivo
[8] = Tmax in BALB/C mouse at 50 mg/kg, ip administered via bolus dose using DMSO formulation measured at 1 to 24 hrs post dose by UV/LC-MS analysis; assay type: ADME, organism-based; conditions: in vivo
[9] = MRT in BALB/C mouse at 50 mg/kg, ip administered via bolus dose using DMSO formulation measured at 1 to 24 hrs post dose by UV/LC-MS analysis; assay type: ADME, organism-based; conditions: in vivo
[10] = AUC (0 to infinity) in BALB/C mouse at 50 mg/kg, ip administered via bolus dose using DMSO formulation measured at 1 to 24 hrs post dose by UV/LC-MS analysis; assay type: ADME, organism-based; set-up: dose 50 mg/kg, time infinity, route intraperitoneal; conditions: in vivo
[11] = AUC (0 to 24 hrs) in BALB/C mouse at 50 mg/kg, ip administered via bolus dose using DMSO formulation measured at 1 to 24 hrs post dose by UV/LC-MS analysis; assay type: ADME, organism-based; set-up: dose 50 mg/kg, time < 24 hr, route intraperitoneal; conditions: in vivo
[12] = Plasma clearance in BALB/C mouse at 50 mg/kg, ip administered via bolus dose using DMSO formulation measured at 1 to 24 hrs post dose by UV/LC-MS analysis; assay type: ADME, organism-based
[13] = Half life in BALB/C mouse at 50 mg/kg, ip administered via bolus dose using DMSO formulation measured at 1 to 24 hrs post dose by UV/LC-MS analysis; assay type: ADME, organism-based; conditions: in vivo
Mus musculus [14] = assay: Cmax in BALB/C mouse assessed as N-(3-bromophenyl)-1-(2-chloro-2-phenylethyl)-6-(2-morpholinoethylthio)-1H-pyrazolo[3,4-d]pyrimidin-4-amine level at 50 mg/kg, ip administered via bolus dose using DMSO formulation measured at 1 to 24 hrs post dose by UV/LC-MS analysis; assay type: ADME, organism-based; set-up: dose 50 mg/kg, route intraperitoneal; conditions: in vivo
Mus musculus [15] = assay: Tmax in BALB/C mouse assessed as N-(3-bromophenyl)-1-(2-chloro-2-phenylethyl)-6-(2-morpholinoethylthio)-1H-pyrazolo[3,4-d]pyrimidin-4-amine level at 50 mg/kg, ip administered via bolus dose using DMSO formulation measured at 1 to 24 hrs post dose by UV/LC-MS analysis; assay type: ADME, organism-based; conditions: in vivo
Mus musculus [16] = assay: MRT in BALB/C mouse assessed as N-(3-bromophenyl)-1-(2-chloro-2-phenylethyl)-6-(2-morpholinoethylthio)-1H-pyrazolo[3,4-d]pyrimidin-4-amine level at 50 mg/kg, ip administered via bolus dose using DMSO formulation measured at 1 to 24 hrs post dose by UV/LC-MS analysis; assay type: ADME, organism-based; conditions: in vivo
Mus musculus [17] = assay: AUC (0 to infinity) in BALB/C mouse assessed as N-(3-bromophenyl)-1-(2-chloro-2-phenylethyl)-6-(2-morpholinoethylthio)-1H-pyrazolo[3,4-d]pyrimidin-4-amine level at 50 mg/kg, ip administered via bolus dose using DMSO formulation measured at 1 to 24 hrs post dose by UV/LC-MS analysis; assay type: ADME, organism-based; set-up: dose 50 mg/kg, time infinity, route intraperitoneal; conditions: in vivo
Mus musculus [18] = assay: AUC (0 to 24 hrs) in BALB/C mouse assessed as N-(3-bromophenyl)-1-(2-chloro-2-phenylethyl)-6-(2-morpholinoethylthio)-1H-pyrazolo[3,4-d]pyrimidin-4-amine level at 50 mg/kg, ip administered via bolus dose using DMSO formulation measured at 1 to 24 hrs post dose by UV/LC-MS analysis; assay type: ADME, organism-based; set-up: dose 50 mg/kg, time < 24 hr, route intraperitoneal; conditions: in vivo
Mus musculus [19] = assay: Plasma clearance in BALB/C mouse assessed as N-(3-bromophenyl)-1-(2-chloro-2-phenylethyl)-6-(2-morpholinoethylthio)-1H-pyrazolo[3,4-d]pyrimidin-4-amine level at 50 mg/kg, ip administered via bolus dose using DMSO formulation measured at 1 to 24 hrs post dose by UV/LC-MS analysis; assay type: ADME, organism-based; conditions: in vivo
Mus musculus [20] = assay: Half life in BALB/C mouse assessed as N-(3-bromophenyl)-1-(2-chloro-2-phenylethyl)-6-(2-morpholinoethylthio)-1H-pyrazolo[3,4-d]pyrimidin-4-amine level at 50 mg/kg, ip administered via bolus dose using DMSO formulation measured at 1 to 24 hrs post dose by UV/LC-MS analysis; assay type: ADME, organism-based; conditions: in vivo
Mus musculus [21] = assay: Cmax in BALB/C mouse assessed as N-(3-bromophenyl)-1-(2-chloro-2-phenylethyl)-6-(2-morpholinoethylthio)-1H-pyrazolo[3,4-d]pyrimidin-4-amine level at 50 mg/kg administered through oral gavage as methylcellulose formulation measured at 1 to 24 hrs post dose by UV/LC-MS analysis; assay type: ADME, organism-based; set-up: dose 50 mg/kg, route oral; conditions: in vivo
Mus musculus [22] = assay: AUC (0 to infinity) in BALB/C mouse assessed as N-(3-bromophenyl)-1-(2-chloro-2-phenylethyl)-6-(2-morpholinoethylthio)-1H-pyrazolo[3,4-d]pyrimidin-4-amine level at 50 mg/kg administered through oral gavage as methylcellulose formulation measured at 1 to 24 hrs post dose by UV/LC-MS analysis; assay type: ADME, organism-based; set-up: dose 50 mg/kg, route oral, time infinity; conditions: in vivo
Mus musculus [23] = assay: AUC (0 to 24 hrs) in BALB/C mouse assessed as N-(3-bromophenyl)-1-(2-chloro-2-phenylethyl)-6-(2-morpholinoethylthio)-1H-pyrazolo[3,4-d]pyrimidin-4-amine level at 50 mg/kg administered through oral gavage as methylcellulose formulation measured at 1 to 24 hrs post dose by UV/LC-MS analysis; assay type: ADME, organism-based; set-up: dose 50 mg/kg, time < 24 hr, route oral; conditions: in vivo
Mus musculus [24] = assay: Plasma clearance in BALB/C mouse assessed as N-(3-bromophenyl)-1-(2-chloro-2-phenylethyl)-6-(2-morpholinoethylthio)-1H-pyrazolo[3,4-d]pyrimidin-4-amine level at 50 mg/kg administered through oral gavage as methylcellulose formulation measured at 1 to 24 hrs post dose by UV/LC-MS analysis; assay type: ADME, organism-based; conditions: in vivo
Mus musculus [25] = assay: Half life in BALB/C mouse assessed as N-(3-bromophenyl)-1-(2-chloro-2-phenylethyl)-6-(2-morpholinoethylthio)-1H-pyrazolo[3,4-d]pyrimidin-4-amine level at 50 mg/kg administered through oral gavage as methylcellulose formulation measured at 1 to 24 hrs post dose by UV/LC-MS analysis; assay type: ADME, organism-based; conditions: in vivo
Kidney = assay: Drug uptake in BALB/C mouse kidney at 50 mg/kg, ip via bolus administration measured at 24 hrs post dose by UV/LC-MS; assay type: ADME, organism-based; conditions: in vivo
[26] = Drug uptake in BALB/C mouse adipose tissue at 50 mg/kg, ip via bolus administration measured at 24 hrs post dose by UV/LC-MS; assay type: ADME, organism-based; conditions: in vivo
Liver = assay: Drug uptake in BALB/C mouse liver at 50 mg/kg, ip via bolus administration measured at 24 hrs post dose by UV/LC-MS; assay type: ADME, organism-based; conditions: in vivo
cells [27] = conditions: Homo sapiens, U-87 MG, 24 h
Description: Cytotoxicity against human U87 cells assessed as reduction in cell viability after 24 hrs by trypan blue assay

cells [28] = conditions: Homo sapiens, U-87 MG, 48 h
Description: Cytotoxicity against human U87 cells assessed as reduction in cell viability after 48 hrs by trypan blue assay

cells [29] = conditions: Homo sapiens, U-87 MG, 72 h
Description: Cytotoxicity against human U87 cells assessed as reduction in cell viability after 72 hrs by trypan blue assay

physchem [30] = conditions: PAMPA
Description: Apparent permeability at 500 uM after 5 hrs by Blood-Brain Barrier-based PAMPA

physchem [31] = conditions: aqueous
Description: Aqueous solubility of compound at 1 mg after 24 hrs by UV/LC-MS analysis

[32] = Half life in PBS buffer at 100 uM at pH 7.4 by UV/LC-MS analysis; assay type: physicochemical
[33] = Half life in methanol at 100 uM by UV/LC-MS analysis; assay type: physicochemical
[34] = Drug uptake in cytoplasm of human U87 cells at 20 uM after 2 hrs by UV/LC-MS analysis; assay type: ADME
[35] = Drug uptake in cytoplasm of human U87 cells at 20 uM after 5 hrs by UV/LC-MS analysis; assay type: ADME
[36] = Half life in mouse plasma by UV/LC-MS analysis; assay type: ADME, cell-free
[37] = Prodrug activation in human U87 cells assessed as N-(3-bromophenyl)-6-(methylthio)-1-(2-phenylpropyl)-1H-pyrazolo[3,4-d]pyrimidin-4-amine formation at 20 uM up to 25 hrs by UV/LC-MS analysis; assay type: cell-based; conditions: u-87mg atcc
[38] = biological target: Tyrosine-protein kinase ABL1 (Homo sapiens, UniProt P00519)
Description: Inhibition of human wild type full length N-terminal GST/6His-tagged ABL (P118 to S535 residues) expressed in Sf9 cells using abltide as substrate after 5 mins in presence of [gamma-32P]ATP by scintillation counting

[39] = biological target: Proto-oncogene tyrosine-protein kinase Src (Homo sapiens, UniProt P12931); assay: biochemical
Chain of Proto-oncogene tyrosine-protein kinase Src (P12931 2-536 limits assumed): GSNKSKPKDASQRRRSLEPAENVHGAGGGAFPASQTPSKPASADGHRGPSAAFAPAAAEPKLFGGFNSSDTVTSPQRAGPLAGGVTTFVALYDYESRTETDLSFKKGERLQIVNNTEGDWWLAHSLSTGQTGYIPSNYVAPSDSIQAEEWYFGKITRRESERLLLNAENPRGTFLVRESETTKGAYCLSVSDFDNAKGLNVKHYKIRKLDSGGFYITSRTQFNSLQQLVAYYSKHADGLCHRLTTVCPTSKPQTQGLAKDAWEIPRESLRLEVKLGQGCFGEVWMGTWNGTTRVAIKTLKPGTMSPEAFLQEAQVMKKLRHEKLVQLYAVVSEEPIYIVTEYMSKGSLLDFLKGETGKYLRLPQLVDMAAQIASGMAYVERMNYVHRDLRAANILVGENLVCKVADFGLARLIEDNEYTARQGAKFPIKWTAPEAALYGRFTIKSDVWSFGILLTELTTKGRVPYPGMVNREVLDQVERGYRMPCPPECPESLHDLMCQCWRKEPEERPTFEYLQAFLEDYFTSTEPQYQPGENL
Description: Inhibition of human wild type full length N-terminal GST/6His-tagged SRC (M1 to L536 residues) expressed in baculovirus infected Sf9 cells using src peptide as substrate after 5 mins in presence of [gamma-32P]ATP by scintillation counting method

Chain of Tyrosine-protein kinase ABL1 (P00519 whole entry): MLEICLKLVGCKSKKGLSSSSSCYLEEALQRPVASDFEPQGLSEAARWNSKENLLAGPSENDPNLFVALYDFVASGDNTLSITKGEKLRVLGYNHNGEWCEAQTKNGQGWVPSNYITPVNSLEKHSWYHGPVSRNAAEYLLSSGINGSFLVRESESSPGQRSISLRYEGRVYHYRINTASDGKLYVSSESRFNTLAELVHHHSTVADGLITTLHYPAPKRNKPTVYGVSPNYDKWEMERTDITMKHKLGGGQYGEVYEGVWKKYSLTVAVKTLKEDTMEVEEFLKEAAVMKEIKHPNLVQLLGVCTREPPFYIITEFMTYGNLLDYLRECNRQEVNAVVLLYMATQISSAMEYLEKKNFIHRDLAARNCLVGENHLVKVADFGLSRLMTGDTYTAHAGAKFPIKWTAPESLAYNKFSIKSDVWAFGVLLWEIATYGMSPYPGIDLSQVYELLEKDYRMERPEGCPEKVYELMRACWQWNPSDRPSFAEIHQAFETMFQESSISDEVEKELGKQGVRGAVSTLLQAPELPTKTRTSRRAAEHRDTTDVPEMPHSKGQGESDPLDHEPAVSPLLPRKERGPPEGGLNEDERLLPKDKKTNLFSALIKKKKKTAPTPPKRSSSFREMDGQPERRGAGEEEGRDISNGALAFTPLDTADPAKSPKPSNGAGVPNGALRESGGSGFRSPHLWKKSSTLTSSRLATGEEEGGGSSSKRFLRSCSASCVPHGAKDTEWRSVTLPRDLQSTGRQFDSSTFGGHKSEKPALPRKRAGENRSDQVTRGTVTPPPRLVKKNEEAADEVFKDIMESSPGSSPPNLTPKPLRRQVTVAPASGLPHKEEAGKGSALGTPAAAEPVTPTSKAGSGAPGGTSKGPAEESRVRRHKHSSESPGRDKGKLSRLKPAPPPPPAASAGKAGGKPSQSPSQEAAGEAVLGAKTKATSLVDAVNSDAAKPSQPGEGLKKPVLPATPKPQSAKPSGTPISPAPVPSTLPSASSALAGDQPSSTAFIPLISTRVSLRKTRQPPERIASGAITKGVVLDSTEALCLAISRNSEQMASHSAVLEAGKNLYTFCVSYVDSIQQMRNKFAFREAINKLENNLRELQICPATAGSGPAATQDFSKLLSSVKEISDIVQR

ClC(Cn1ncc2c(Nc3cccc(Br)c3)nc(SCCN3CCOCC3)nc21)c1ccccc1 (stereo not drawn)
MST [1]: 44 days | MRT (Mus musculus [2]): 11.97 h | Tmax (Mus musculus [3]): 2 h | remaining at 1 h, 50 µM [4]: 97.2% | remaining at 1 h, 50 µM [5]: 89.2% | concentration at 24 h [6]: 2.6 µM | Drug uptake (Brain): 2.7 nmol/g | Cmax [7]: 6.83 µM | Tmax [8]: 0.5 h | MRT [9]: 19.1 h | AUC(0-inf) [10]: 79.7 µM·h | AUC(0-t) at 24 h [11]: 56.1 µM·h | CL/F [12]: 0.46 mL/min | half-life [13]: 14.8 h | Cmax (Mus musculus [14]): 6.07 µM | Tmax (Mus musculus [15]): 1.5 h | MRT (Mus musculus [16]): 46.62 h | AUC (Mus musculus [17]): 135.11 µM·h | AUC (Mus musculus [18]): 55.14 µM·h | CL (Mus musculus [19]): 0.27 mL/min | t1/2 (Mus musculus [20]): 33.3 h | Cmax (Mus musculus [21]): 5.35 µM | AUC (Mus musculus [22]): 43.53 µM·h | AUC (Mus musculus [23]): 36.69 µM·h | CL (Mus musculus [24]): 1.14 mL/min | t1/2 (Mus musculus [25]): 9.06 h | Drug uptake (Kidney): 3.6 nmol/g | Drug uptake [26]: 51.2 nmol/g | Drug uptake (Liver): 1.7 nmol/g | pIC50 (cells [27]): 4.76 | pIC50 (cells [28]): 5.17 | pIC50 (cells [29]): 5.72 | Papp at 5 h, 500 µM (physchem [30]): 7.1 ×10⁻⁶ cm/s | solubility at 24 h (physchem [31]): 3.7 µg/mL (≈ 6.45 µM)

CSc1nc(N(C(=O)OCCN2CCN(C)CC2)c2cccc(Br)c2)c2cnn(CC(C)c3ccccc3)c2n1 (stereo not drawn)
half-life at 100 µM [32]: > 48 h | half-life at 100 µM [33]: > 48 h | Drug uptake [34]: Active | Drug uptake [35]: Active | half-life [36]: 2 h | remaining at 1 h, 50 µM [5]: 93.3% | Drug metabolism [37]: Metabolite_Detected | pKi [38]: < 4.00 | pIC50 (cells [27]): 5.14 | pIC50 (cells [28]): 5.66 | pIC50 (cells [29]): 5.80 | Papp at 5 h, 500 µM (physchem [30]): 1.89 ×10⁻⁶ cm/s | solubility at 24 h (physchem [31]): 6.47 µg/mL (≈ 10.4 µM) | pKi [39]: < 4.00
